Data from ChEMBL document CHEMBL1201862, “PubChem BioAssay data set” (2004).
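These data come from cells grown in 96-well plates and exposed to compound for 48 hours at five concentrations. Here, GI50 denotes the concentration required for 50% inhibition of growth.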 Active and inactive are the calls of the source. No stated cut-off is given here; in the data, active = GI50 up to about 1.1 µM and inactive = higher.

Columns and labels:
Assay in all cases: NCI-60 cell line screen, 48 h
[1] = test system: ACHN
[2] = test system: CCRF-CEM
[3] = test system: EKVX
[4] = test system: HCT-15
[5] = test system: HOP-62
[6] = test system: HOP-92
[7] = test system: HT-29
[8] = test system: IGROV-1
[9] = test system: KM12
[10] = test system: M14
[11] = test system: MDA-MB-435
[12] = test system: MDA-N
[13] = test system: NCI-H460
[14] = test system: NCI-H522
[15] = test system: OVCAR-3
[16] = test system: OVCAR-5
[17] = test system: SF-268
[18] = test system: SF-539
[19] = test system: SK-MEL-2
[20] = test system: M19-MEL

SMILES | GI50 [1] | GI50 [2] | GI50 [3] | GI50 [4] | GI50 [5] | GI50 [6] | GI50 [7] | GI50 [8] | GI50 [9] | GI50 [10] | GI50 [11] | GI50 [12] | GI50 [13] | GI50 [14] | GI50 [15] | GI50 [16] | GI50 [17] | GI50 [18] | GI50 [19] | GI50 [20]
N=C(N)NS(=O)(=O)c1ccc(NC(=O)c2ccc3nc4ccccc4c(Nc4ccc(S(=O)(=O)N=C(N)N)cc4)c3c2)cc1 | > 100 µM (inactive) | > 100 µM (inactive) | > 100 µM (inactive) | > 100 µM | > 100 µM (inactive) | > 100 µM (inactive) | > 100 µM (inactive) | > 100 µM (inactive) | > 100 µM (inactive) | > 100 µM (inactive) | > 100 µM (inactive) | > 100 µM (inactive) | > 100 µM (inactive) | > 100 µM (inactive) | > 100 µM (inactive) | > 100 µM (inactive) | > 100 µM (inactive) | > 100 µM (inactive) | > 100 µM (inactive) | 
CC(C)(C)c1cc(C(C)(C)C)c2c(c1O)OC(=O)CS2 | 3.96 µM (inactive) | 4.17 µM (inactive) | 4.31 µM (inactive) | 3.66 µM | 7.13 µM (inactive) | 9.59 µM (inactive) | 4.34 µM (inactive) | 7.1 µM (inactive) | 4.44 µM (inactive) | 7.1 µM (inactive) | 3.85 µM (inactive) | 3.67 µM (inactive) | 2.75 µM (inactive) | 4.06 µM (inactive) | 3.69 µM (inactive) | 5.85 µM (inactive) | 5.51 µM (inactive) | 3.72 µM (inactive) | 6.93 µM (inactive) | 
NC1N=C(c2ccc(Cl)cc2)C2=C(N1)c1ccccc1CC2 (centres undefined) | > 51.2 µM (inactive) | 3.93 µM (inactive) | 14.2 µM (inactive) | 3.58 µM | > 40.6 µM (inactive) | 33.6 µM (inactive) | 3.16 µM (inactive) | 5.68 µM (inactive) | 4.03 µM (inactive) | 19.9 µM (inactive) | 2.62 µM (inactive) | 2.29 µM (inactive) | 8.51 µM (inactive) | 4.07 µM (inactive) | 16.7 µM (inactive) | 51.1 µM (inactive) | > 54 µM (inactive) | 14.6 µM (inactive) | 9.08 µM (inactive) | 
O=C(Cn1c(=O)oc2ccc(C(=O)c3ccccc3Cl)cc21)c1ccc([N+](=O)[O-])cc1 | 32.7 µM (inactive) | 4.29 µM (inactive) | 24.2 µM (inactive) | 17.7 µM | 25.1 µM (inactive) | 27.5 µM (inactive) | 24.2 µM (inactive) | 23.6 µM (inactive) | 20.1 µM (inactive) | 18.4 µM (inactive) | 17.7 µM (inactive) | 18.1 µM (inactive) | 18.4 µM (inactive) | 14.9 µM (inactive) | 17 µM (inactive) | 47.6 µM (inactive) | 24.8 µM (inactive) | 28.8 µM (inactive) | 20.4 µM (inactive) | 
COc1cc2c(cc1OC)CC(=O)c1cc(OC)c(OC)cc1/C=C\2 | > 12.5 µM (inactive) | > 12.5 µM (inactive) | > 12.5 µM (inactive) | 5.85 µM | > 12.5 µM (inactive) | > 12.5 µM (inactive) | 5.79 µM (inactive) | 10.8 µM (inactive) | 4.55 µM (inactive) | 9.57 µM (inactive) | 3.92 µM (inactive) | 2.8 µM (inactive) | > 12.5 µM (inactive) | 9.44 µM (inactive) | > 12.5 µM (inactive) | > 12.5 µM (inactive) | > 12.5 µM (inactive) | > 12.5 µM (inactive) | > 12.5 µM (inactive) | 
O=C(O)CN1CCNCCN(CC(=O)O)CC1 | > 84.5 µM (inactive) | 5.47 µM (inactive) | 12.5 µM (inactive) | 3.79 µM | > 27.7 µM (inactive) | 8.38 µM (inactive) | 2.38 µM (inactive) | 12.6 µM (inactive) | 16.8 µM (inactive) | 25.7 µM (inactive) | 11.6 µM (inactive) | 11.4 µM (inactive) | 7.66 µM (inactive) | 3.28 µM (inactive) | 6.49 µM (inactive) | > 22.1 µM (inactive) | 89.1 µM (inactive) | 13 µM (inactive) | 26.4 µM (inactive) | 
[N-]=[N+]=Nc1c(N2CCOCC2)c(Cl)nc2ccccc12 | 39.2 µM (inactive) | > 100 µM (inactive) | 9.55 µM (inactive) | 46.6 µM | 58.6 µM (inactive) | 46.7 µM (inactive) | 27.2 µM (inactive) | 81.8 µM (inactive) | 27 µM (inactive) | 37.4 µM (inactive) | 42.5 µM (inactive) | 48.8 µM (inactive) | 28.8 µM (inactive) | 29.7 µM (inactive) | 43.5 µM (inactive) | > 100 µM (inactive) | 37.5 µM (inactive) | 65.5 µM (inactive) | 39 µM (inactive) | 
COc1ccc(C2C(C(=O)O)=C(CO)Oc3cc4c(cc32)OCO4)c(OC)c1 (centres undefined) | 63.1 µM (inactive) | 31 µM (inactive) | > 100 µM (inactive) | 67.9 µM | 18.8 µM (inactive) | > 100 µM (inactive) | 67.6 µM (inactive) | > 100 µM (inactive) |  | > 100 µM (inactive) |  |  | > 100 µM (inactive) |  | 57.5 µM (inactive) |  |  | 70 µM (inactive) |  | 60.4 µM (inactive)
O=C(CC(=O)Nc1ccccc1Cl)NNC(Sc1ccccc1)c1cc(/N=N/c2ccc(Br)cc2)ccc1O (centres undefined) | 1.36 µM (inactive) | 0.409 µM (active) | 3.29 µM (inactive) | 0.679 µM | 2.56 µM (inactive) | 2.07 µM (inactive) | > 10 µM (inactive) | 2.71 µM (inactive) | 1.35 µM (inactive) | 0.785 µM (active) | 2.06 µM (inactive) | 2.06 µM (inactive) | 0.625 µM (active) | 4.07 µM (inactive) | 0.404 µM (active) | 3.01 µM (inactive) | 0.74 µM (active) | 1.45 µM (inactive) | 3.3 µM (inactive) | 
CCCCCCCCCCCCCCCCCCNc1ccn(C2OC(COP(=O)(O)OCC3OC(n4cc(C)c(=O)[nH]c4=O)CC3F)C(O)C2O)c(=O)n1 (centres undefined) | 13 µM (inactive) | 4.61 µM (inactive) | 10.3 µM (inactive) | 6.01 µM | 9.75 µM (inactive) | 18.4 µM (inactive) | 7.69 µM (inactive) | 5.78 µM (inactive) | 5.22 µM (inactive) | 8.17 µM (inactive) | 7.91 µM (inactive) | 8.15 µM (inactive) | 7.41 µM (inactive) | 4.29 µM (inactive) | 7.24 µM (inactive) | 2.56 µM (inactive) | 8.59 µM (inactive) | 9.46 µM (inactive) | 9.14 µM (inactive) | 
Cc1cc(NS(=O)(=O)c2ccc(NC(=O)c3cccc4c(NNc5ccc(S(N)(=O)=O)cc5)c5ccccc5nc34)cc2)no1 | 39 µM (inactive) | 27.9 µM (inactive) | 33.4 µM (inactive) | 95.1 µM | 42.4 µM (inactive) | 22.7 µM (inactive) | 30.9 µM (inactive) | 47.3 µM (inactive) | 38.1 µM (inactive) | 67.1 µM (inactive) | 75.7 µM (inactive) | 52.1 µM (inactive) | 34.9 µM (inactive) | 25 µM (inactive) | 26.7 µM (inactive) | 39.6 µM (inactive) | 34.9 µM (inactive) | > 100 µM (inactive) | 24 µM (inactive) | 
C=C1C(OC)=C(OC)C(=O)c2[nH]c3c(OC)cc([N+](=O)[O-])cc3c21 | > 100 µM (inactive) | > 100 µM (inactive) | 62.4 µM (inactive) | > 100 µM | 85.7 µM (inactive) | > 100 µM (inactive) | > 100 µM (inactive) | > 100 µM (inactive) | > 100 µM (inactive) | > 100 µM (inactive) | > 100 µM (inactive) | > 100 µM (inactive) | > 100 µM (inactive) | > 100 µM (inactive) | > 100 µM (inactive) | > 100 µM (inactive) | > 100 µM (inactive) | > 100 µM (inactive) | > 100 µM (inactive) | 
COc1cc(OC)nc(-n2c(N)c(C#N)c3ccc([N+](=O)[O-])cc3c2=O)n1 | > 100 µM (inactive) | > 100 µM (inactive) | > 100 µM (inactive) | > 100 µM | > 100 µM (inactive) | > 100 µM (inactive) | > 100 µM (inactive) | 79.3 µM (inactive) | > 100 µM (inactive) | > 100 µM (inactive) | > 100 µM (inactive) | > 100 µM (inactive) | > 100 µM (inactive) | 18.3 µM (inactive) | > 100 µM (inactive) | > 100 µM (inactive) | > 100 µM (inactive) | > 100 µM (inactive) | > 100 µM (inactive) | 
CN(C)/C=N\c1c(Br)cc(Br)c2nonc12 | > 100 µM (inactive) | > 100 µM (inactive) | > 100 µM (inactive) | > 100 µM | > 100 µM (inactive) | 85.7 µM (inactive) | > 100 µM (inactive) | > 100 µM (inactive) | > 100 µM (inactive) | > 100 µM (inactive) | > 100 µM (inactive) | > 100 µM (inactive) | > 100 µM (inactive) | > 100 µM (inactive) | > 100 µM (inactive) | > 100 µM (inactive) | > 100 µM (inactive) | > 100 µM (inactive) | > 100 µM (inactive) | 
Cc1c(-c2cnccn2)ssc1=S [OLTIPRAZ] | 44 µM (inactive) | 60.3 µM (inactive) | 33.2 µM (inactive) | 62.8 µM | 47 µM (inactive) | 26.8 µM (inactive) | > 100 µM (inactive) | > 100 µM (inactive) | > 80.9 µM (inactive) | > 100 µM (inactive) | > 100 µM (inactive) | > 100 µM (inactive) | > 100 µM (inactive) | 34.8 µM (inactive) | 99.3 µM (inactive) | > 100 µM (inactive) | 56.2 µM (inactive) | 63.1 µM (inactive) | 53.3 µM (inactive) | 
